From patent US12703704B2, “Process for preparing a composition comprising enantiomerically enriched pyrrolo[2,3-d]pyrimidines” (Sun Pharmaceutical Industries, Inc., priority 2020, dated 2026)

Key:
[1] = molecular target: JAK2 (Homo sapiens, UniProt O60674); experiment: JAK2 inhibition (IC50); assay type: biochemical; settings: Compound A or a pharmaceutically acceptable salt thereof
[2] = molecular target: JAK1 (Homo sapiens, UniProt P23458); experiment: JAK1 inhibition (IC50); assay type: biochemical; settings: Compound A or a pharmaceutically acceptable salt thereof
Sequence of JAK1 (P23458 whole entry): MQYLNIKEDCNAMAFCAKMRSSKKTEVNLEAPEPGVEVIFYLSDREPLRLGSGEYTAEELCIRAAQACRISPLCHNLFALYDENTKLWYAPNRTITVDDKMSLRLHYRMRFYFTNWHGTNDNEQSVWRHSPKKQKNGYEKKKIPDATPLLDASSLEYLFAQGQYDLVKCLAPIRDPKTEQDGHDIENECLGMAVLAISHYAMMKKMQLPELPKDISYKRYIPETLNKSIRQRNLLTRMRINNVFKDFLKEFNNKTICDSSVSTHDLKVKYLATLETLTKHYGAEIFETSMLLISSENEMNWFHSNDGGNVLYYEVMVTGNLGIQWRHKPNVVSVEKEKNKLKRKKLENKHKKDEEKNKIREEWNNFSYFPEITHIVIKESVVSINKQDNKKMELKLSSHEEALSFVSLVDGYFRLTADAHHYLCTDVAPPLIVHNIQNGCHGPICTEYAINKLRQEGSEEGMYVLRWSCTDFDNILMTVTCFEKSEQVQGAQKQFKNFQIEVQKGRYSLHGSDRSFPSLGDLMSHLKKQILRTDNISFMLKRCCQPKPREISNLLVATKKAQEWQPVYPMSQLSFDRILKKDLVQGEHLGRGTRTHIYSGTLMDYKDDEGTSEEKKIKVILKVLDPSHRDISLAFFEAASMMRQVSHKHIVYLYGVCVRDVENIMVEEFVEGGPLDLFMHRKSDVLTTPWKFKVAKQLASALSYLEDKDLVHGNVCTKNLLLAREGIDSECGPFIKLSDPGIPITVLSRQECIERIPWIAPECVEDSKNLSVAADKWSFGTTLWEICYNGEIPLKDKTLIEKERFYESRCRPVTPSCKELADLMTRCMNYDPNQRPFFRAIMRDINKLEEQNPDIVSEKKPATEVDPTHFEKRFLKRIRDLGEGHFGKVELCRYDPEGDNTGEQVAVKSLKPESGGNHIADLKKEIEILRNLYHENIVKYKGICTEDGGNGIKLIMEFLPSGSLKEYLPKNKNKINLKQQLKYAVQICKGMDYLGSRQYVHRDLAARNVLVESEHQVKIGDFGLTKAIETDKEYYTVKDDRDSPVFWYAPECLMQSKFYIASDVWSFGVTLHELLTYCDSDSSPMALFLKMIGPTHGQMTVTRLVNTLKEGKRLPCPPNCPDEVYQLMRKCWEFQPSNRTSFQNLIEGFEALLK

Sequence of JAK2 (O60674 whole entry): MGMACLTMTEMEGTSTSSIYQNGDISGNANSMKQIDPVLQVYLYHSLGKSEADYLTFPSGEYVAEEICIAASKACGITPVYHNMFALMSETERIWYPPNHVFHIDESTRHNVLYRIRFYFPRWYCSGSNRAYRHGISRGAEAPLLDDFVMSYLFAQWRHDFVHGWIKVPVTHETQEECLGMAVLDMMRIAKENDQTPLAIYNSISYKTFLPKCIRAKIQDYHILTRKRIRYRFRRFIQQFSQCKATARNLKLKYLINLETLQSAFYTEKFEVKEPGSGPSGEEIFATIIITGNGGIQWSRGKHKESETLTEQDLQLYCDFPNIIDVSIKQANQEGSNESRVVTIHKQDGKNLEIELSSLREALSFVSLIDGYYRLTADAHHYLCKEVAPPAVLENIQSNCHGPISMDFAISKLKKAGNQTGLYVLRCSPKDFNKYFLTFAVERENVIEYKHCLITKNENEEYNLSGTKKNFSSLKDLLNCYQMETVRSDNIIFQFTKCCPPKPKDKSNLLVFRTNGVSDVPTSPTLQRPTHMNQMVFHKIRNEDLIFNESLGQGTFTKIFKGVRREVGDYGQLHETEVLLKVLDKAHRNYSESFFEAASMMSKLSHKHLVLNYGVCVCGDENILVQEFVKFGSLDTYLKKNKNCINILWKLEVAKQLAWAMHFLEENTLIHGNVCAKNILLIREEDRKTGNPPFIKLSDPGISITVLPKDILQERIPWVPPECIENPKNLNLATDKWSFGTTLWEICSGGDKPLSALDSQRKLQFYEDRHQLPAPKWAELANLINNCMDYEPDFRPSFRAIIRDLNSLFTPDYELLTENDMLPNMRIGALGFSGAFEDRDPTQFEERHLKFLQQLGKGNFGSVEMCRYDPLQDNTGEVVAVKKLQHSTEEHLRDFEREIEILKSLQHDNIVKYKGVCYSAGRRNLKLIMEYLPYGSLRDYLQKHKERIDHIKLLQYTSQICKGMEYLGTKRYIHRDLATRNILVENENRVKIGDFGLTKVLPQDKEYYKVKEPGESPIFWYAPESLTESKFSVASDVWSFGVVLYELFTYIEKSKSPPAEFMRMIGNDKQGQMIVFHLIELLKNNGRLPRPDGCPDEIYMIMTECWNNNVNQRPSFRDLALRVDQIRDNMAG

- IC50 [1]: < 100 nM
- IC50 [2]: < 100 nM
Compound: [2H]C1([2H])C([C@@H](CC(N)=O)n2cc(-c3ncnc4[nH]ccc34)cn2)C([2H])([2H])C([2H])([2H])C1([2H])[2H] [Compound A, (R)-3-(4-(7H-pyrrolo[2,3-d]pyrimidin-4-yl)-1H-pyrazol-1-yl)-3-(cyclopentyl-2,2,3,3,4,4,5,5-d8) propanamide]
